Experimental data taken from ChEMBL document CHEMBL4706557, “Synthesis and in vitro and in vivo biological evaluation of novel derivatives of flexicaulin A as antiproliferative agents” (Eur J Med Chem, 2020).
The source made the active and inactive calls. The rule behind the calls is not given here.

How the values were obtained:
[1] = Toxicity in nude BALB/c mouse xenografted with human EC109 cells assessed as change in body weight at 20 to 40 mg/kg, ip administered every day for 14 days; format: organism-based; conditions: in vivo, 336 h, dose 20-40 mg/kg, time 14 day
ECa-109 cell line [2] = assay: Antitumor activity against human EC109 cells xenografted in BALB/c mouse assessed as reduction in tumor weight at 20 mg/kg, ip administered every day for 14 days; format: functional, organism-based; conditions: time 14.0 day
ECa-109 cell line [3] = assay: Antiproliferative activity against human EC109 cells assessed as reduction in survival rate after 24 to 72 hrs by SRB assay; format: functional, cell-based; conditions: time 24-72 hrs
HUVEC = assay: Cytotoxicity against HUVEC assessed as reduction in survival rate at 0 to 8 uM by SRB assay; format: cell-based; conditions: human, TDE = time-dependent effect, dose 0-8 µM
GES1 = assay: Cytotoxicity against human GES1 cells assessed as inhibition of cell growth incubated for 72 hrs by SRB assay; format: cell-based; conditions: GES1, 72 h
ECa-109 cell line [4] = assay: Induction of apoptosis in human EC-109 cells assessed as apoptotic rate at 1.5 uM after 24 hrs by Annexin V-FITC/propidium iodide staining based flow cytometry (reference value: 5.3 %); format: functional
ECa-109 cell line [5] = assay: Induction of mitochondrial depolarization in human EC-109 cells assessed as depolarized cell population at 1.5 uM measured after 24 hrs by JC1 dye based flow cytometry (reference value: 4.2 %); format: functional
ECa-109 cell line [6] = assay: Induction of mitochondrial depolarization in human EC-109 cells assessed as depolarized cell population at 3 uM measured after 24 hrs by JC1 dye based flow cytometry (reference value: 4.2 %); format: functional
ECa-109 cell line [7] = assay: Induction of apoptosis in human EC109 cells assessed as increase in cleaved caspase 9 expression after 24 hrs by Western blot analysis; format: functional, cell-based
ECa-109 cell line [8] = assay: Induction of apoptosis in human EC109 cells assessed as increase in cleaved caspase 3 expression after 24 hrs by Western blot analysis; format: functional, cell-based
ECa-109 cell line [9] = assay: Induction of apoptosis in human EC109 cells assessed as increase in Bad expression after 24 hrs by Western blot analysis; format: functional, cell-based
ECa-109 cell line [10] = assay: Induction of apoptosis in human EC109 cells assessed as increase in BimL expression after 24 hrs by Western blot analysis; format: functional, cell-based
ECa-109 cell line [11] = assay: Induction of apoptosis in human EC109 cells assessed as increase in phosphorylated MKK4 expression incubated for 24 hrs by Western blot analysis; format: functional, cell-based
ECa-109 cell line [12] = assay: Induction of morphological changes in human EC109 cells assessed as appearance of contracted and rounded cells; format: functional, cell-based
ECa-109 cell line [13] = assay: Induction of morphological changes in human EC109 cells assessed as decrease in number of cells; format: functional, cell-based
ECa-109 cell line [14] = assay: Induction of morphological changes in human EC109 cells assessed as appearance of contracted and rounded cells in presence of N-acetylcysteine; format: functional, cell-based
ECa-109 cell line [15] = assay: Induction of apoptosis in human EC-109 cells assessed as apoptotic rate at 3 uM after 48 hrs by Annexin V-FITC/propidium iodide staining based flow cytometry (reference value: 3.8 %); format: functional
ECa-109 cell line [16] = assay: Induction of apoptosis in human EC-109 cells assessed as apoptotic rate at 3 uM preincubated with N-acetylcysteine for 4 hrs followed by compound addition and measured after 24 hrs by Annexin V-FITC/propidium iodide staining based flow cytometry (reference value: 5.7 %); format: functional
ECa-109 cell line [17] = assay: Induction of apoptosis in human EC109 cells assessed as change in phosphorylated MKK4 expression at 3 uM incubated for 24 hrs in presence of N-acetylcysteine by Western blot analysis; format: functional, cell-based
ECa-109 cell line [18] = assay: Induction of apoptosis in human EC109 cells assessed as reduction in Bcl-2 expression at 3 uM incubated for 24 hrs in presence of N-acetylcysteine by Western blot analysis; format: functional, cell-based
ECa-109 cell line [19] = assay: Induction of apoptosis in human EC-109 cells xenografted in nude BALB/c mouse assessed as appearance of morphological changes at 20 to 40 mg/kg, ip administered once daily for 14 days by H and E staining based histopathological analysis; format: functional, organism-based; conditions: dose 20-40 mg/kg, time 14.0 day
ECa-109 cell line [20] = assay: Induction of apoptosis in human EC-109 cells xenografted in BALB/c mouse assessed as increase in cleaved caspase 9 in tumor tissue at 40 mg/kg, ip QD for 14 days by Western blotting analysis relative to control; format: functional, organism-based; conditions: time 14.0 day
ECa-109 cell line [21] = assay: Induction of apoptosis in human EC-109 cells xenografted in BALB/c mouse assessed as increase in phosphorylated ASK1 in tumor tissue at 20 to 40 mg/kg, ip QD for 14 days by Western blotting analysis; format: functional, organism-based; conditions: dose 20-40 mg/kg, time 14.0 day
[22] = Toxicity in BALB/c mouse assessed as effect on WBC level at 40 mg/kg, ip administered once daily for 14 days (reference value: 4.42 +/- 0.79 10^9/L); format: organism-based; conditions: in vivo, 336 h, time 14 day
[23] = Toxicity in BALB/c mouse assessed as RDW at 40 mg/kg, ip administered once daily for 14 days (reference value: 14.18 +/- 0.26 %); format: organism-based; conditions: in vivo, 336 h, time 14 day
[24] = Toxicity in BALB/c mouse assessed as effect on creatinine content at 20 to 40 mg/kg, ip administered once daily for 14 days; format: organism-based; conditions: in vivo, 336 h, dose 20-40 mg/kg, time 14 day
[25] = Toxicity in BALB/c mouse assessed as effect on glomeruli in kidney at 20 to 40 mg/kg, ip administered once daily for 14 days by HE staining based assay; format: organism-based; conditions: in vivo, 336 h, dose 20-40 mg/kg, time 14 day

Q: For C=C1C(=O)[C@@]23[C@H](O)C[C@@H]4C(C)(C)CCC[C@@]4(COC(C)=O)[C@@H]2[C@@H](O)C[C@H]1[C@H]3OC(=O)c1ccc(CCl)cc1, which Activity [1] is on record?
A: Its Activity is “Non-Toxic”.

Q: And the inhibition (ECa-109 cell line [2])?
A: Its inhibition is “Active”.

Q: What about the inhibition (ECa-109 cell line [3]) of the same molecule?
A: The inhibition was “Dose-dependent effect”.

Q: What about the Activity (HUVEC) of the same molecule?
A: The Activity was “Tde”.

Q: What about the IC50 (GES1) of the same molecule?
A: Its IC50 is 520 nM.

Q: And the Activity (ECa-109 cell line [4])?
A: The Activity was 28.2%.

Q: And the Activity (ECa-109 cell line [5])?
A: Its Activity is 47.1%.

Q: What about the Activity (ECa-109 cell line [6]) of the same molecule?
A: The Activity was 70.7%.

Q: And the Activity (ECa-109 cell line [7])?
A: Its Activity is “Dose-dependent effect”.

Q: What about the Activity (ECa-109 cell line [8]) of the same molecule?
A: The Activity was “Dose-dependent effect”.

Q: And the Activity (ECa-109 cell line [9])?
A: Its Activity is “Dose-dependent effect”.

Q: What about the Activity (ECa-109 cell line [10]) of the same molecule?
A: Its Activity is “Dose-dependent effect”.

Q: What about the Activity (ECa-109 cell line [11]) of the same molecule?
A: The Activity was “Dose-dependent effect”.

Q: And the Activity (ECa-109 cell line [12])?
A: The Activity was “Active”.

Q: And the Activity (ECa-109 cell line [13])?
A: Its Activity is “Active”.

Q: What about the Activity (ECa-109 cell line [14]) of the same molecule?
A: The Activity was “inactive”.

Q: What about the Activity (ECa-109 cell line [15]) of the same molecule?
A: Its Activity is 88.2%.

Q: What about the Activity (ECa-109 cell line [16]) of the same molecule?
A: Its Activity is 5.6%.

Q: What about the Activity (ECa-109 cell line [17]) of the same molecule?
A: The Activity was “inactive”.

Q: What about the Activity (ECa-109 cell line [18]) of the same molecule?
A: The Activity was “inactive”.

Q: And the Activity (ECa-109 cell line [19])?
A: The Activity was “Active”.

Q: And the Activity (ECa-109 cell line [20])?
A: Its Activity is “Active”.

Q: And the Activity (ECa-109 cell line [21])?
A: Its Activity is “Active”.

Q: What about the Activity [22] of the same molecule?
A: The Activity was 4.21 10^9/L.

Q: What about the Activity [23] of the same molecule?
A: Its Activity is 14.73%.

Q: What about the Activity [24] of the same molecule?
A: The Activity was “Non-Toxic”.

Q: And the Activity [25]?
A: Its Activity is “Non-Toxic”.
